According to patent US4416884A, “Piperazinylbenzoheterocyclic compounds” (Otsuka Pharmaceutical Co., Ltd., priority 1978, dated 1983):
Where two headings read alike, the source gives them in different places.

Key:
Type in all cases: cell-based
[1] = test system: Test Organism 2 (Escherichia Coli NIHJ JC-2 (IFO 12734)); test: influence of the addition of horse serum on the MIC
[2] = test system: Streptococcus pneumoniae Type I; test: antimicrobial activity, serial dilution method on agar plate
Method in brief: (§1)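 MIC (mcg/ml) read on Heart Infusion agar plates carrying serial compound dilutions. Organisms inoculated at two densities: 1×10^8 cells/ml, set by O.D. 660 mμ=0.07 to 0.16, and a 1×10^6 cells/ml dilution of that suspension.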

[3] = test system: Pseudomonas aeruginosa E-2; test: as above
Method in brief: as §1

[4] = test system: Salmonella typhi 0-901 (NCTC 8393); test: as above; conditions: Salmonella enterica, read-out: Minimum Inhibitory Concentration
Method in brief: as §1

Hafnia alvei IFO 3731 = test: as above
Method in brief: as §1

[5] = test system: Staphylococcus aureus FDA 209 P; test: as above
Method in brief: as §1

[6] = test system: Pseudomonas aeruginosa ATCC 10145; test: as above
Method in brief: as §1

[7] = test system: Pseudomonas putida IFO 13696; test: as above
Method in brief: as §1

Klebsiella pneumoniae = test: as above
Method in brief: as §1

[8] = test system: Proteus morganii IID Kono; test: as above; conditions: Morganella morganii
Method in brief: as §1

[9] = test system: Yersinia enterocolitica 0-3; test: as above
Method in brief: as §1

[10] = test system: Serattia marcescens IFO 12648; test: as above
Method in brief: as §1

Escherichia Coli NIHJ = test: as above
Method in brief: as §1

Shigella Sonnei EW 33 = test: as above; conditions: read-out: Minimum Inhibitory Concentration
Method in brief: as §1

[11] = test system: Pseudomonas fluorescens IFO 12568; test: antimicrobial activity on bacteria which cause infectious diseases in fish
Experimental: (§2) The antimicrobial activity of the following test compounds on various test organisms listed below was determined by the serial dilution method on agar plate (Heart Infusion agar produced by Difco Co.) (see CHEMOTHERAPY 22, pp. 1126-1128 (1974)), and the minimum inhibitory concentrations (mcg/ml) obtained are shown in Table 1 below.
(§3) A sample of each test organism was prepared so that the population of the organism was 1×10^8 cells/ml (O.D. 660 mμ=0.07 to 0.16) and 1×10^6 cells/ml (which was obtained by diluting the above 1×10^8 cells/ml preparation).
(§4) In the same manner as above, the antimicrobial activity of the following compounds on various test organisms which cause infectious diseases in fish was determined.

[12] = test system: Aeromonas hydrophila IFO 12658; test: as above
Experimental: as §2, §3, §4

[13] = test system: Pseudomonas fluorescens IFO 12180; test: as above; conditions: IFO12180, read-out: Minimum Inhibitory Concentration
Experimental: as §2, §3, §4

[14] = test system: Aeromonas salmonicida IFO 12718; test: as above
Experimental: as §2, §3, §4

[15] = test system: Aeromonas salmonicida IFO 12659; test: as above
Experimental: as §2, §3, §4

[16] = test system: Vibrio anguillarum IFO 12710; test: as above
Experimental: as §2, §3, §4

[17] = test system: Vibrio anguillarum IFO 13266; test: as above
Experimental: as §2, §3, §4

[18] = test system: Aeromonas hydrophila IFO 12981; test: as above
Experimental: as §2, §3, §4

[19] = test system: Test Organism 27 (Streptococcus pneumoniae Type III); test: influence of the addition of horse serum on the MIC
[20] = test system: Test Organism 21 (Bacillus subtilis PCI 219); test: as above
[21] = read-out: Minimum Inhibitory Concentration, horse serum 0%, inoculum 10^6
[22] = read-out: Minimum Inhibitory Concentration, horse serum 0%, inoculum 10^8
[23] = read-out: Minimum Inhibitory Concentration, horse serum 10%, inoculum 10^6
[24] = read-out: Minimum Inhibitory Concentration, horse serum 10%, inoculum 10^8
[25] = read-out: Minimum Inhibitory Concentration, horse serum 20%, inoculum 10^6
[26] = read-out: Minimum Inhibitory Concentration, horse serum 20%, inoculum 10^8
[27] = read-out: Minimum Inhibitory Concentration, horse serum 40%, inoculum 10^6
[28] = read-out: Minimum Inhibitory Concentration, horse serum 40%, inoculum 10^8
[29] = read-out: Minimum Inhibitory Concentration, inoculum 1 × 10^6 cells/ml
[30] = read-out: Minimum Inhibitory Concentration, inoculum 1 × 10^8 cells/ml

Measured: MIC

CC1Cc2c(N3CCNCC3)ccc3c(=O)c(C(=O)O)cn1c23 (centres unmarked) [C]
3.1 µg/mL: [3]; E2, read-out: Minimum Inhibitory Concentration, inoculum 1 × 10^6 cells/ml | [7]; IFO13696, read-out: Minimum Inhibitory Concentration, inoculum 1 × 10^6 cells/ml | [7]; IFO13696, read-out: Minimum Inhibitory Concentration, inoculum 1 × 10^8 cells/ml | [8]; [29] | [8]; [30] | [10]; [30] | [13] | [16]; IFO12710, read-out: Minimum Inhibitory Concentration, inoculum 10^8 | [19]; [21] | [19]; [23] | [19]; [25] | [19]; [26] | [19]; [28] | [20]; [22]
25 µg/mL: [5]; FDA209, read-out: Minimum Inhibitory Concentration, inoculum 1 × 10^6 cells/ml | [5]; FDA209, read-out: Minimum Inhibitory Concentration, inoculum 1 × 10^8 cells/ml | [11]; IFO12568, read-out: Minimum Inhibitory Concentration, inoculum 10^6
1.6 µg/mL: [1]; [21] | [1]; [22] | [1]; [23] | [1]; [24] | [1]; [25] | Hafnia alvei IFO 3731; IFO3731, read-out: Minimum Inhibitory Concentration, inoculum 1 × 10^8 cells/ml | [9]; Yersinia enterocolitica, 03, read-out: Minimum Inhibitory Concentration, inoculum 1 × 10^6 cells/ml | [9]; Yersinia enterocolitica, 03, read-out: Minimum Inhibitory Concentration, inoculum 1 × 10^8 cells/ml | [10]; [29] | Shigella Sonnei EW 33; inoculum 1 × 10^6 cells/ml | Shigella Sonnei EW 33; inoculum 1 × 10^8 cells/ml | [16]; IFO12710, read-out: Minimum Inhibitory Concentration, inoculum 10^6 | [19]; [27] | [20]; [21] | [20]; [23] | [20]; [24] | [20]; [25] | [20]; [26]
6.3 µg/mL: [3]; E2, read-out: Minimum Inhibitory Concentration, inoculum 1 × 10^8 cells/ml | [6]; ATCC10145, read-out: Minimum Inhibitory Concentration, inoculum 1 × 10^6 cells/ml | [6]; ATCC10145, read-out: Minimum Inhibitory Concentration, inoculum 1 × 10^8 cells/ml | [19]; [22] | [19]; [24]
0.2 µg/mL: [4]; inoculum 1 × 10^6 cells/ml | [12]; IFO12658, inoculum 10^6, read-out: Minimum Inhibitory Concentration | [15]; IFO12659, inoculum 10^6, read-out: Minimum Inhibitory Concentration | [17]; IFO13266, read-out: Minimum Inhibitory Concentration, inoculum 10^6 | [18]; IFO12981, inoculum 10^6, read-out: Minimum Inhibitory Concentration
100 µg/mL: [2]; [30]
0.8 µg/mL: [1]; [26] | Hafnia alvei IFO 3731; IFO3731, read-out: Minimum Inhibitory Concentration, inoculum 1 × 10^6 cells/ml | Klebsiella pneumoniae; [29] | Klebsiella pneumoniae; [30] | Escherichia Coli NIHJ; [30]
0.4 µg/mL: [1]; [27] | [1]; [28] | [4]; inoculum 1 × 10^8 cells/ml | Escherichia Coli NIHJ; [29] | [12]; IFO12658, inoculum 10^8, read-out: Minimum Inhibitory Concentration | [14]; IFO12718, inoculum 10^6, read-out: Minimum Inhibitory Concentration | [14]; IFO12718, inoculum 10^8, read-out: Minimum Inhibitory Concentration | [15]; IFO12659, inoculum 10^8, read-out: Minimum Inhibitory Concentration | [17]; IFO13266, read-out: Minimum Inhibitory Concentration, inoculum 10^8 | [18]; IFO12981, inoculum 10^8, read-out: Minimum Inhibitory Concentration | [20]; [27] | [20]; [28]
50 µg/mL: [2]; [29] | [11]; IFO12568, read-out: Minimum Inhibitory Concentration, inoculum 10^8
